Results: ChEMBL document CHEMBL1201862, “PubChem BioAssay data set” (2004)
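Each compound was tested at five concentrations against cells in 96-well plates for 48 hours. GI50: concentration for 50% inhibition of growth.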 The source made the active and inactive calls. No stated cut-off is given here; in the data, active = GI50 up to about 1.1 µM and inactive = higher.

Key:
Experiment in all cases: DTP human tumour cell line panel, 48 h
A549 = tested on: A549
COLO 205 = tested on: COLO 205
DU-145 = tested on: DU-145
EKVX = tested on: EKVX
HL-60 = tested on: HL-60
LOX IMVI = tested on: LOX IMVI
MCF7 = tested on: MCF7
MDA-MB-231 = tested on: MDA-MB-231
MDA-MB-435 = tested on: MDA-MB-435
NCI-H226 = tested on: NCI-H226
NCI-H23 = tested on: NCI-H23
NCI-H522 = tested on: NCI-H522
NCI/ADR-RES = tested on: NCI/ADR-RES
OVCAR-4 = tested on: OVCAR-4
PC-3 = tested on: PC-3
SK-MEL-2 = tested on: SK-MEL-2
SN12C = tested on: SN12C
SR = tested on: SR
SW-620 = tested on: SW-620

Measured: GI50

CC1C(=NO)C(C)C(c2ccccc2)N(N=O)C1c1ccccc1 (configuration not stated)
inactive: A549 17.8 µM | COLO 205 17.3 µM | DU-145 30.8 µM | EKVX 22.9 µM | HL-60 25 µM | LOX IMVI 15.9 µM | MCF7 37.9 µM | MDA-MB-231 16.1 µM | MDA-MB-435 21.3 µM | NCI-H226 24.7 µM | NCI-H23 24.8 µM | NCI-H522 14.7 µM | NCI/ADR-RES 17.5 µM | OVCAR-4 19.6 µM | PC-3 25.4 µM | SK-MEL-2 18.7 µM | SN12C 15.5 µM | SR 15.5 µM | SW-620 21.8 µM

CCC(=O)c1cc(C(=O)C(=S)SC)cc(C(=O)C(=S)SC)c1
inactive: A549 > 100 µM | COLO 205 > 100 µM | DU-145 > 100 µM | EKVX > 100 µM | HL-60 4.83 µM | LOX IMVI 4.19 µM | MCF7 > 72.1 µM | MDA-MB-231 > 100 µM | MDA-MB-435 > 100 µM | NCI-H226 > 100 µM | NCI-H23 > 76.7 µM | NCI-H522 > 55.3 µM | NCI/ADR-RES > 100 µM | OVCAR-4 > 100 µM | PC-3 > 100 µM | SK-MEL-2 > 100 µM | SN12C > 100 µM | SR 11 µM | SW-620 52.8 µM

Sc1nn2c(COc3cccc(OCc4nnc5sc(S)nn45)c3)nnc2s1
inactive: A549 > 100 µM | COLO 205 > 100 µM | DU-145 > 100 µM | EKVX > 100 µM | HL-60 7.08 µM | LOX IMVI 34.4 µM | MCF7 76.2 µM | MDA-MB-231 > 100 µM | MDA-MB-435 > 100 µM | NCI-H226 > 100 µM | NCI-H23 > 100 µM | NCI-H522 64.6 µM | NCI/ADR-RES > 100 µM | OVCAR-4 > 100 µM | PC-3 > 100 µM | SK-MEL-2 > 100 µM | SN12C > 100 µM | SR 17.4 µM | SW-620 37.5 µM

c1ccc2c(c1)nnn2C1CCCCO1 (configuration not stated)
inactive: A549 > 100 µM | COLO 205 > 100 µM | DU-145 > 100 µM | EKVX > 100 µM | HL-60 > 100 µM | LOX IMVI > 100 µM | MCF7 > 100 µM | MDA-MB-231 > 100 µM | MDA-MB-435 > 100 µM | NCI-H226 > 100 µM | NCI-H23 > 100 µM | NCI-H522 > 100 µM | NCI/ADR-RES > 100 µM | OVCAR-4 > 100 µM | PC-3 > 100 µM | SK-MEL-2 > 100 µM | SN12C > 100 µM | SR > 100 µM | SW-620 > 100 µM

COc1ccc(-n2c(=O)[nH]n(C(C)=O)c2=O)cc1
inactive: A549 > 100 µM | COLO 205 > 100 µM | DU-145 > 100 µM | EKVX > 100 µM | HL-60 > 100 µM | LOX IMVI > 100 µM | MCF7 > 100 µM | MDA-MB-231 > 100 µM | MDA-MB-435 > 100 µM | NCI-H226 > 100 µM | NCI-H23 > 100 µM | NCI-H522 > 100 µM | NCI/ADR-RES > 100 µM | OVCAR-4 > 100 µM | PC-3 > 100 µM | SK-MEL-2 > 100 µM | SN12C > 100 µM | SR > 100 µM | SW-620 > 100 µM

CS(=N)(=O)CCC(N)P(=O)(O)O (configuration not stated)
inactive: A549 > 100 µM | COLO 205 > 100 µM | DU-145 > 100 µM | EKVX > 100 µM | HL-60 > 100 µM | LOX IMVI > 100 µM | MCF7 > 100 µM | MDA-MB-231 > 100 µM | MDA-MB-435 > 100 µM | NCI-H226 > 100 µM | NCI-H23 > 100 µM | NCI-H522 > 100 µM | NCI/ADR-RES > 100 µM | OVCAR-4 > 100 µM | PC-3 > 100 µM | SK-MEL-2 > 100 µM | SN12C > 100 µM | SR > 100 µM | SW-620 > 100 µM

N/N=C(/CC(O)(C(F)(F)F)C(F)(F)F)c1ccccc1
inactive: A549 > 10 µM | COLO 205 > 10 µM | DU-145 > 10 µM | EKVX > 10 µM | HL-60 > 10 µM | LOX IMVI > 10 µM | MCF7 > 10 µM | MDA-MB-231 > 10 µM | MDA-MB-435 > 10 µM | NCI-H226 > 10 µM | NCI-H23 > 10 µM | NCI-H522 > 10 µM | NCI/ADR-RES > 10 µM | OVCAR-4 > 10 µM | PC-3 > 10 µM | SK-MEL-2 > 10 µM | SN12C > 10 µM | SR > 10 µM | SW-620 > 10 µM

c1ccc([I+]c2ccccc2)cc1
inactive: A549 > 100 µM | COLO 205 > 100 µM | DU-145 > 100 µM | EKVX > 100 µM | HL-60 > 100 µM | LOX IMVI > 100 µM | MCF7 > 100 µM | MDA-MB-231 > 100 µM | MDA-MB-435 > 100 µM | NCI-H226 > 100 µM | NCI-H23 > 100 µM | NCI-H522 > 100 µM | NCI/ADR-RES > 100 µM | OVCAR-4 > 100 µM | PC-3 > 100 µM | SK-MEL-2 > 100 µM | SN12C > 100 µM | SR > 100 µM | SW-620 > 100 µM
